Assay results published in ChEMBL document CHEMBL3885881, “DrugMatrix”.

Species on record: Rattus norvegicus
Assay: DrugMatrix - Regimen: Daily Repeat
Type: toxicity, organism-based, Sprague-Dawley
Set-up: regimen Daily Repeat, gender Male, age 6-8 weeks
Conditions: in vivo, po, route oral GAVAGE, vehicle .5 % CMC; for BASOPHIL / EOSINOPHIL / ERYTHROCYTE COUNT / HEMATOCRIT / HEMOGLOBIN / LEUKOCYTE COUNT / LYMPHOCYTE / MEAN CORPUSCULAR HEMOGLOBIN / MEAN CORPUSCULAR HEMOGLOBIN CONCENTRATION / MEAN CORPUSCULAR VOLUME / MONOCYTE / NEUTROPHIL / PLATELET COUNT: tissue Blood; for ALANINE AMINOTRANSFERASE / ALBUMIN / ALKALINE PHOSPHATASE / ASPARTATE AMINOTRANSFERASE / BLOOD UREA NITROGEN / CHLORIDE / CHOLESTEROL / CREATINE PHOSPHOKINASE / CREATININE / GLUCOSE / PHOSPHORUS / POTASSIUM / SODIUM / TOTAL PROTEIN: tissue Plasma
[1] = 0 mg/kg, 72 h, dose level Control, time 3 day
[2] = 0 mg/kg, 120 h, dose level Control, time 5 day
[3] = 50 mg/kg, 72 h, dose level Low, time 3 day
[4] = 50 mg/kg, 120 h, dose level Low, time 5 day
[5] = 2000 mg/kg, 72 h, dose level High, time 3 day
[6] = 2000 mg/kg, 120 h, dose level High, time 5 day

## NC1CCN(c2nc3c(cc2F)c(=O)c(C(=O)O)cn3-c2ccc(F)cc2F)C1 (configuration not stated) [TOSUFLOXACIN]
[1]
  BASOPHIL: 0%
  EOSINOPHIL: 0.4%
  ERYTHROCYTE COUNT: 6.43 x10E6/uL
  HEMATOCRIT: 37.36%
  HEMOGLOBIN: 13.98 G/DL
  LEUKOCYTE COUNT: 13 x10E3/uL
  LYMPHOCYTE: 81.4%
  MEAN CORPUSCULAR HEMOGLOBIN: 21.9 pg
  MEAN CORPUSCULAR HEMOGLOBIN CONCENTRATION: 37.4 G/DL
  MEAN CORPUSCULAR VOLUME: 58.52 fL
  MONOCYTE: 0.4%
  NEUTROPHIL: 18%
  PLATELET COUNT: 1386 x10E3/uL
  ALANINE AMINOTRANSFERASE: 39.33 u/L
  ALBUMIN: 3.57 G/DL
  ALKALINE PHOSPHATASE: 283.83 u/L
  ASPARTATE AMINOTRANSFERASE: 69.5 u/L
  BLOOD UREA NITROGEN: 14.83 mg/dL
  CHLORIDE: 107.33 MEQ/L
  CHOLESTEROL: 75.17 mg/dL
  CREATINE PHOSPHOKINASE: 107.67 u/L
  CREATININE: 0.48 mg/dL
  GLUCOSE: 172.5 mg/dL
  PHOSPHORUS: 10.48 mg/dL
  POTASSIUM: 6.9 MEQ/L
  SODIUM: 152.33 MEQ/L
  TOTAL PROTEIN: 5.9 G/DL
[2]
  BASOPHIL: 0%
  EOSINOPHIL: 0.4%
  ERYTHROCYTE COUNT: 6.96 x10E6/uL
  HEMATOCRIT: 41.12%
  HEMOGLOBIN: 15.24 G/DL
  LEUKOCYTE COUNT: 11.06 x10E3/uL
  LYMPHOCYTE: 88.6%
  MEAN CORPUSCULAR HEMOGLOBIN: 21.96 pg
  MEAN CORPUSCULAR HEMOGLOBIN CONCENTRATION: 37.1 G/DL
  MEAN CORPUSCULAR VOLUME: 59.12 fL
  MONOCYTE: 0.2%
  NEUTROPHIL: 10.8%
  PLATELET COUNT: 1155.8 x10E3/uL
  ALANINE AMINOTRANSFERASE: 36.33 u/L
  ALBUMIN: 3.72 G/DL
  ALKALINE PHOSPHATASE: 340.33 u/L
  ASPARTATE AMINOTRANSFERASE: 68.33 u/L
  BLOOD UREA NITROGEN: 15 mg/dL
  CHLORIDE: 108.17 MEQ/L
  CHOLESTEROL: 74.67 mg/dL
  CREATINE PHOSPHOKINASE: 110.67 u/L
  CREATININE: 0.47 mg/dL
  GLUCOSE: 171.33 mg/dL
  PHOSPHORUS: 10.05 mg/dL
  POTASSIUM: 6.7 MEQ/L
  SODIUM: 155.5 MEQ/L
  TOTAL PROTEIN: 6.33 G/DL
[3]
  BASOPHIL: 0%
  EOSINOPHIL: 0%
  ERYTHROCYTE COUNT: 6.96 x10E6/uL
  HEMATOCRIT: 39.2%
  HEMOGLOBIN: 14.2 G/DL
  LEUKOCYTE COUNT: 12.93 x10E3/uL
  LYMPHOCYTE: 90%
  MEAN CORPUSCULAR HEMOGLOBIN: 20.4 pg
  MEAN CORPUSCULAR HEMOGLOBIN CONCENTRATION: 36.27 G/DL
  MEAN CORPUSCULAR VOLUME: 56.3 fL
  MONOCYTE: 0%
  NEUTROPHIL: 10%
  PLATELET COUNT: 1074.33 x10E3/uL
  ALANINE AMINOTRANSFERASE: 36.67 u/L
  ALBUMIN: 3.4 G/DL
  ALKALINE PHOSPHATASE: 240 u/L
  ASPARTATE AMINOTRANSFERASE: 66.33 u/L
  BLOOD UREA NITROGEN: 13 mg/dL
  CHLORIDE: 106.33 MEQ/L
  CHOLESTEROL: 63 mg/dL
  CREATINE PHOSPHOKINASE: 121.33 u/L
  CREATININE: 0.53 mg/dL
  GLUCOSE: 176.67 mg/dL
  PHOSPHORUS: 10.7 mg/dL
  POTASSIUM: 6.8 MEQ/L
  SODIUM: 151.33 MEQ/L
  TOTAL PROTEIN: 5.6 G/DL
[4]
  BASOPHIL: 0%
  EOSINOPHIL: 0%
  ERYTHROCYTE COUNT: 6.08 x10E6/uL
  HEMATOCRIT: 34.23%
  HEMOGLOBIN: 12.7 G/DL
  LEUKOCYTE COUNT: 19.4 x10E3/uL
  LYMPHOCYTE: 93.33%
  MEAN CORPUSCULAR HEMOGLOBIN: 21 pg
  MEAN CORPUSCULAR HEMOGLOBIN CONCENTRATION: 37.13 G/DL
  MEAN CORPUSCULAR VOLUME: 56.57 fL
  MONOCYTE: 0%
  NEUTROPHIL: 6.67%
  PLATELET COUNT: 1222.33 x10E3/uL
  ALANINE AMINOTRANSFERASE: 34 u/L
  ALBUMIN: 3.43 G/DL
  ALKALINE PHOSPHATASE: 218.33 u/L
  ASPARTATE AMINOTRANSFERASE: 56.33 u/L
  BLOOD UREA NITROGEN: 11 mg/dL
  CHLORIDE: 108 MEQ/L
  CHOLESTEROL: 63.33 mg/dL
  CREATINE PHOSPHOKINASE: 106.33 u/L
  CREATININE: 0.5 mg/dL
  GLUCOSE: 169.67 mg/dL
  PHOSPHORUS: 10.13 mg/dL
  POTASSIUM: 6.4 MEQ/L
  SODIUM: 152 MEQ/L
  TOTAL PROTEIN: 5.67 G/DL
[5]
  BASOPHIL: 0%
  EOSINOPHIL: 0%
  ERYTHROCYTE COUNT: 6.75 x10E6/uL
  HEMATOCRIT: 40.45%
  HEMOGLOBIN: 14.85 G/DL
  LEUKOCYTE COUNT: 13.75 x10E3/uL
  LYMPHOCYTE: 88.5%
  MEAN CORPUSCULAR HEMOGLOBIN: 22.05 pg
  MEAN CORPUSCULAR HEMOGLOBIN CONCENTRATION: 36.65 G/DL
  MEAN CORPUSCULAR VOLUME: 59.95 fL
  MONOCYTE: 0%
  NEUTROPHIL: 11.5%
  PLATELET COUNT: 1313.5 x10E3/uL
  ALANINE AMINOTRANSFERASE: 30.33 u/L
  ALBUMIN: 3.63 G/DL
  ALKALINE PHOSPHATASE: 215 u/L
  ASPARTATE AMINOTRANSFERASE: 58.67 u/L
  BLOOD UREA NITROGEN: 11.33 mg/dL
  CHLORIDE: 106.67 MEQ/L
  CHOLESTEROL: 79 mg/dL
  CREATINE PHOSPHOKINASE: 134.33 u/L
  CREATININE: 0.5 mg/dL
  GLUCOSE: 175 mg/dL
  PHOSPHORUS: 11.67 mg/dL
  POTASSIUM: 7.4 MEQ/L
  SODIUM: 153.33 MEQ/L
  TOTAL PROTEIN: 6.17 G/DL
[6]
  BASOPHIL: 0%
  EOSINOPHIL: 0.33%
  ERYTHROCYTE COUNT: 6.63 x10E6/uL
  HEMATOCRIT: 39.83%
  HEMOGLOBIN: 14.4 G/DL
  LEUKOCYTE COUNT: 13.93 x10E3/uL
  LYMPHOCYTE: 93.67%
  MEAN CORPUSCULAR HEMOGLOBIN: 21.83 pg
  MEAN CORPUSCULAR HEMOGLOBIN CONCENTRATION: 36.23 G/DL
  MEAN CORPUSCULAR VOLUME: 60.27 fL
  MONOCYTE: 0%
  NEUTROPHIL: 6%
  PLATELET COUNT: 1193.67 x10E3/uL
  ALANINE AMINOTRANSFERASE: 45.67 u/L
  ALBUMIN: 3.47 G/DL
  ALKALINE PHOSPHATASE: 280 u/L
  ASPARTATE AMINOTRANSFERASE: 64.67 u/L
  BLOOD UREA NITROGEN: 9.67 mg/dL
  CHLORIDE: 108 MEQ/L
  CHOLESTEROL: 65.67 mg/dL
  CREATINE PHOSPHOKINASE: 144.33 u/L
  CREATININE: 0.5 mg/dL
  GLUCOSE: 162.33 mg/dL
  PHOSPHORUS: 9.47 mg/dL
  POTASSIUM: 6.3 MEQ/L
  SODIUM: 152.67 MEQ/L
  TOTAL PROTEIN: 5.8 G/DL
